Here are results for four compounds from PubChem BioAssay (NCI).

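Five compound concentrations were applied to cells in 96-well plates for 48 hours; endpoints were derived by simple linear interpolation of the resulting dose-response curve. Definition used: TGI = concentration required for complete inhibition of growth.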

One assay relates to SNB-78 CNS. In words: inhibition of tumour cell growth, NCI panel, 48 h.
As for `Cc1ccccc1C(CCCO)C(=O)O` (stereo not given), the TGI was greater than 100 µM.
Compound `COc1ccc(-c2c(C3=NCCCN3)nnn2-c2ccccc2)cc1` came in with a TGI greater than 100 µM.

The subject of another assay is IGROV1 ovarian. In words: inhibition of tumour cell growth, NCI panel, 48 h.
On to `CC(C)(CN1CCCCC1)C(=O)/C=C/c1ccc(Br)cc1`, for which the TGI came to 6.48 µM.
The compound `Cc1ccccc1C(CCCO)C(=O)O` (stereo not given) displayed a TGI greater than 100 µM.
`COc1ccc(-c2c(C3=NCCCN3)nnn2-c2ccccc2)cc1` had a TGI greater than 100 µM.

In another assay the test system is KM12 colon. As to the kind of experiment: inhibition of tumour cell growth, NCI panel, 48 h.
Regarding `CC(C)(CN1CCCCC1)C(=O)/C=C/c1ccc(Br)cc1`, the TGI came to 11.9 µM.
For `COc1ccc2c(C(=O)O)cc3ccccc3c2c1OC`, the TGI amounted to 33.9 µM.
For the compound `Cc1ccccc1C(CCCO)C(=O)O` (stereo not given), the TGI was greater than 100 µM.
Turning to `COc1ccc(-c2c(C3=NCCCN3)nnn2-c2ccccc2)cc1`, the TGI was greater than 100 µM.

The next assay deals with M19-MEL melanoma. In words: inhibition of tumour cell growth, NCI panel, 48 h.
`CC(C)(CN1CCCCC1)C(=O)/C=C/c1ccc(Br)cc1` showed a TGI greater than 51.8 µM.
`COc1ccc2c(C(=O)O)cc3ccccc3c2c1OC` gave a TGI of 61 µM.
On to `Cc1ccccc1C(CCCO)C(=O)O` (stereo not given), for which the TGI is greater than 100 µM.
As to `COc1ccc(-c2c(C3=NCCCN3)nnn2-c2ccccc2)cc1`, the TGI is greater than 100 µM.

A further assay concerns NCI-H226 lung. As to the kind of experiment: inhibition of tumour cell growth, NCI panel, 48 h.
`CC(C)(CN1CCCCC1)C(=O)/C=C/c1ccc(Br)cc1` returned a TGI of 15.7 µM.
Regarding `COc1ccc2c(C(=O)O)cc3ccccc3c2c1OC`, the TGI came to 71.9 µM.
Compound `COc1ccc(-c2c(C3=NCCCN3)nnn2-c2ccccc2)cc1` had a TGI greater than 100 µM.

Another assay deals with HOP-62 NSCLC. As to the kind of experiment: inhibition of tumour cell growth, NCI panel, 48 h.
`CC(C)(CN1CCCCC1)C(=O)/C=C/c1ccc(Br)cc1`: the TGI stood at 9.82 µM.
`COc1ccc2c(C(=O)O)cc3ccccc3c2c1OC` had a TGI greater than 100 µM.
On the same count and under the same terms, next, `Cc1ccccc1C(CCCO)C(=O)O` (stereo not given): greater than 100 µM; `COc1ccc(-c2c(C3=NCCCN3)nnn2-c2ccccc2)cc1`: greater than 100 µM.

For a further assay, the system named is CAKI-1 renal. As to the kind of experiment: inhibition of tumour cell growth, NCI panel, 48 h.
With `CC(C)(CN1CCCCC1)C(=O)/C=C/c1ccc(Br)cc1`, the TGI is 3.71 µM.
On to `Cc1ccccc1C(CCCO)C(=O)O` (stereo not given), for which the TGI was greater than 100 µM.
`COc1ccc(-c2c(C3=NCCCN3)nnn2-c2ccccc2)cc1` yielded a TGI greater than 100 µM.

For another assay, the system named is RPMI-8226 leukemia. As to the kind of experiment: inhibition of tumour cell growth, NCI panel, 48 h.
Turning to `CC(C)(CN1CCCCC1)C(=O)/C=C/c1ccc(Br)cc1`, the TGI was greater than 27.1 µM.
On the same count and under the same terms, for `COc1ccc2c(C(=O)O)cc3ccccc3c2c1OC` the value was greater than 100 µM; for `Cc1ccccc1C(CCCO)C(=O)O` (stereo not given), greater than 100 µM; for `COc1ccc(-c2c(C3=NCCCN3)nnn2-c2ccccc2)cc1`, greater than 100 µM.

The test system of another assay is SNB-19 CNS. In words: inhibition of tumour cell growth, NCI panel, 48 h.
Turning to `CC(C)(CN1CCCCC1)C(=O)/C=C/c1ccc(Br)cc1`, the TGI was determined as 4.75 µM.
`COc1ccc2c(C(=O)O)cc3ccccc3c2c1OC` yielded a TGI greater than 100 µM.
In turn, `Cc1ccccc1C(CCCO)C(=O)O` (stereo not given) gave a TGI greater than 100 µM.
On to `COc1ccc(-c2c(C3=NCCCN3)nnn2-c2ccccc2)cc1`, for which the TGI is greater than 100 µM.

The test system of the next assay is DLD-1 colon. In words: inhibition of tumour cell growth, NCI panel, 48 h.
For the compound `CC(C)(CN1CCCCC1)C(=O)/C=C/c1ccc(Br)cc1`, the TGI was determined as 10.3 µM.
`COc1ccc2c(C(=O)O)cc3ccccc3c2c1OC` had a TGI greater than 100 µM.
The same measure, in the same setting: for `Cc1ccccc1C(CCCO)C(=O)O` (stereo not given) the value was greater than 100 µM; for `COc1ccc(-c2c(C3=NCCCN3)nnn2-c2ccccc2)cc1`, greater than 100 µM.

The next assay deals with 786-0 renal. In words: inhibition of tumour cell growth, NCI panel, 48 h.
In the case of `CC(C)(CN1CCCCC1)C(=O)/C=C/c1ccc(Br)cc1`, the TGI stood at 4.72 µM.
The same measure, in the same setting: next, `COc1ccc2c(C(=O)O)cc3ccccc3c2c1OC`: 31.1 µM; `Cc1ccccc1C(CCCO)C(=O)O` (stereo not given): greater than 100 µM.
In the case of `COc1ccc(-c2c(C3=NCCCN3)nnn2-c2ccccc2)cc1`, the TGI was greater than 100 µM.

Another assay concerns TK-10 renal. In words: inhibition of tumour cell growth, NCI panel, 48 h.
In turn, `CC(C)(CN1CCCCC1)C(=O)/C=C/c1ccc(Br)cc1` had a TGI of 10.2 µM.
Same read-out and setting: next, `COc1ccc2c(C(=O)O)cc3ccccc3c2c1OC`: 33.2 µM.
In turn, `Cc1ccccc1C(CCCO)C(=O)O` (stereo not given) yielded a TGI greater than 100 µM.
In the case of `COc1ccc(-c2c(C3=NCCCN3)nnn2-c2ccccc2)cc1`, the TGI is greater than 100 µM.

A further assay relates to SNB-75 CNS. In words: inhibition of tumour cell growth, NCI panel, 48 h.
Take `CC(C)(CN1CCCCC1)C(=O)/C=C/c1ccc(Br)cc1`: the TGI was found to be 14.9 µM.
Compound `COc1ccc2c(C(=O)O)cc3ccccc3c2c1OC` registered a TGI greater than 100 µM.
Same read-out and setting: next, `Cc1ccccc1C(CCCO)C(=O)O` (stereo not given): greater than 100 µM; `COc1ccc(-c2c(C3=NCCCN3)nnn2-c2ccccc2)cc1`: greater than 100 µM.

Another assay has as its system OVCAR-5 ovarian. In words: inhibition of tumour cell growth, NCI panel, 48 h.
In turn, `CC(C)(CN1CCCCC1)C(=O)/C=C/c1ccc(Br)cc1` showed a TGI of 11.8 µM.
`COc1ccc2c(C(=O)O)cc3ccccc3c2c1OC` came in with a TGI of 38.7 µM.
Same read-out and setting: next, `Cc1ccccc1C(CCCO)C(=O)O` (stereo not given): greater than 100 µM; `COc1ccc(-c2c(C3=NCCCN3)nnn2-c2ccccc2)cc1`: greater than 100 µM.

The subject of the next assay is CCRF-CEM leukemia. As to the kind of experiment: inhibition of tumour cell growth, NCI panel, 48 h.
As to `CC(C)(CN1CCCCC1)C(=O)/C=C/c1ccc(Br)cc1`, the TGI was determined as 9.34 µM.
Compound `COc1ccc2c(C(=O)O)cc3ccccc3c2c1OC` came in with a TGI of 88.4 µM.
In turn, `Cc1ccccc1C(CCCO)C(=O)O` (stereo not given) displayed a TGI greater than 100 µM.
Consider `COc1ccc(-c2c(C3=NCCCN3)nnn2-c2ccccc2)cc1`, for which the TGI was greater than 100 µM.
